Tested on: B16F10 murine melanoma cells
Experiment: Melanin content in α-MSH-stimulated B16F10 cells
Format: cell-based
Settings: 400 μg, vs α-MSH alone treated B16F10 cells
Description: B16F10 cells (obtained from National Centre for Cell Sciences (NCCS), Pune, India) were cultured in Dulbecco's Modified Eagle's Medium (DMEM; Sigma Aldrich Co, St Louis, USA) with 10% fetal bovine serum (FBS) and penicillin/streptomycin (100 IU.50 Pg ml-1) in a humidified atmosphere of 5% CO2 at 37° C. The cells were cultured in 6-well plates for melanin quantification and enzyme activity assays.
Determination of melanin content of cells was done using a modification of the method of Bilodeau et al (Bilodeau et al 2001). In the present study, the amount of melanin was used as an index of melanogenesis. B16 F10 cells (5×10^4) were transferred to 24-well dishes and incubated in the presence or absence of 100 nM α-MSH. Cells were then incubated for 24 h with different concentration of the composition. After washing twice with PBS, samples were dissolved in 100 μl of 1N NaOH. The samples were then incubated at 60° C. for 1 h and mixed to solubilize the melanin. Absorbance at 405 nm was compared with a standard curve of synthetic melanin.
In order to assess the anti-melanogenesis activity of the composition, the melanin content was measured in both α-MSH-untreated and α-MSH-treated B16F10 cells. The cells were treated with/without α-MSH, followed by treatment with the composition at doses of 100, 200 and 400 μg/Ml (FIG. 4A).

OC[C@H]1O[C@@H](Oc2ccc(O)cc2)[C@H](O)[C@@H](O)[C@@H]1O [arbutin]
decrease of melanin content: 35.96%

From patent US12246079B2, “Bisacurone composition and method of skin whitening” (Vidya Herbs, Inc., priority 2019, dated 2025)
